According to patent US20180353512A1, “COMBINATION THERAPIES FOR TREATING B-CELL MALIGNANCIES” (GILEAD SCIENCES, INC., priority 2015, published 2018):

What was measured:
p-S6 S235/236 = test: Immunohistochemistry of TMD8 xenograft tumor samples; type: in vivo, mice; conditions: PI3Kδ inhibitor 5 mg/kg, Compound B 10 mg/kg; data not shown
Protocol: (§1) Paraffin sections of the tumor samples were prepared for immunohistochemistry. Slides were prepared with EZ Prep (Ventana Medical Systems) CC1 (Ventana Medical Systems) and rinsed with Reaction Buffer (Ventana Medical Systems). Slides were incubated with ChromoMap Inhibitor (Venatana Medical Systems) and rinsed a Reaction Buffer rinse before incubating with anti-pS6 (S235/236) rabbit monoclonal antibody (Cell Signaling Technology) at 0.02 ug/mL or anti-c-MYC rabbit monoclonal antibody (Abcam Inc.) at 0.3 ug/mL. After 1 hour at room temperature, the slides were incubated sequentially with Anti-Rabbit HQ (Ventana Medical Systems), Anti-HQ HRP (Ventana Medical Systems) hydrogen peroxide CM (Ventana Medical Systems), Copper CM (Ventana Medical Systems), and Hematoxylin II. Slides were imaged using the Leica AT2 digital slide scanner (Leica Microsystems Inc.) and documented in Digital Image Hub (DIH-SlidePath).

c-MYC = test: as above; type: in vivo, mice; conditions: PI3Kδ inhibitor 5 mg/kg, Compound B 10 mg/kg; data not shown
Protocol: as §1

[1] = system: TMD8^R (Idelalisib-resistant line); test: CellTiter-Glo viability assay at 96 h; type: cell-based; conditions: TMD8^R
Protocol: Growth inhibition to Idelalisib or other inhibitors was assessed using CellTiter-Glo viability assay at 96 h. […] Cell lines were analyzed by whole exome sequencing, RNASeq, and phosphoproteomics. Protein expression was measured using Simple Western and SDS/PAGE and western blot. Caspase 3/7 was measured using Caspase-Glo 3/7 assay; apoptosis was measured with Annexin V assay and propidium iodide by flow cytometry.
Cell viability EC50 was determined using a sigmoidal dose-response (variable slope) curve generated from quadruplicate samples. Statistical significance was determined using the student's t-test for cell viability and two-tailed paired t-test for apoptosis experiments in Prism (GraphPad).
Idelalisib-resistant (TMD8^R) cell line and passage-matched Idelalisib-sensitive (TMD8^S) cell line were generated according to the procedure described in Example 5 above. To characterize the resistant cells, cell viability assays, RNASeq of multidrug resistance (MDR) family of ABC transporter genes (N=33), apoptosis assays, and phosphoprotein analysis were performed. Cell viability was measured using CellTiter-Glo, as described in Example 1A above. Western blot and protein level analysis were performed after treatment with 420 nM idelalisib, 320 nM Compound B and combination thereof, using Peggy Sue (ProteinSimple) automated Western Blot system. Protein concentration (pg/μL) was quantitated using recombinant protein standards. Normalized AUC were determined for each of the treatment groups, normalized to actin. Apoptosis was assessed by propidium iodide and Annexin V/FITC staining and measured by flow cytometry, as described in Example 1A above. Western Blot with anti-p-AKT (S473) antibody and Peggy Sue were used to determine the phosphorylation state of downstream signaling components.

[2] = cited from earlier work

Structure (SMILES) | p-S6 signal, IHC (p-S6 S235/236) | c-MYC signal, IHC (c-MYC) | inhibition at 1 µM ([1]; at 1 μM, read-out: Growth inhibition) [%] | EC50 ([1]; single agent, read-out: EC50, cell viability) [µM] | clinical Cmin [2] [nM] | Cmax ([2]; clinical) [nM]
CC#CC(=O)N1CC[C@@H](n2c(=O)n(-c3ccc(Oc4ccccc4)cc3)c3c(N)ncnc32)C1 [Compound B, 6-amino-9-[(3R)-1-(2-butynoyl)-3-pyrrolidinyl]-7-(4-phenoxyphenyl)-7,9-dihydro-8H-purin-8-one] | did not reduce | did not reduce |  |  |  | 
CCC(Nc1ncnc2[nH]cnc12)c1nc2cccc(F)c2c(=O)n1-c1ccccc1 (stereo not drawn) [Idelalisib, 2-(1-((9H-Purin-6-yl)amino)propyl)-5-fluoro-3-phenylquinazolin-4(3H)-one] |  |  | 19 | > 10 | 103 | 591
